We go through 17 compounds from ChEMBL document CHEMBL1127962, “Investigation of the effects of synthetic, non-cytotoxic immunophilin inhibitors on MDR” (1994).

Molecules are shown by their SMILES. A value given as a limit tells only on which side of the number the result lay.

One assay relates to KB. Put plainly: In vitro reversal of multidrug resistance (MDR) in human carcinoma cell line. The format is functional.
The target of assay [1] is Peptidyl-prolyl cis-trans isomerase FKBP1A (Homo sapiens) (UniProt P62942). Put plainly: In vitro inhibition of non-cytotoxic immunophilin FK506 binding protein activity.
Chain of Peptidyl-prolyl cis-trans isomerase FKBP1A (Homo sapiens) (P62942 whole entry): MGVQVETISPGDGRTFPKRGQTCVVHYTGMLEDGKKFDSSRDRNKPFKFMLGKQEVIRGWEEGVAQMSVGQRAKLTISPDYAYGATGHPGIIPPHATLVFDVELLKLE

Take `COc1cccc(C(=O)CN2CCCCC2C(=O)N[C@@H](Cc2ccccc2)C(=O)N[C@H](/C=C/COC(=O)C(F)(F)F)C(C)C)c1` (some centres undefined): the values for the Activity (in the assay on KB; in assay [1]) were 49 µM and 1 µM, respectively.
`C=CCC(CC(C)C[C@H](C)C[C@H](OC)C1OC(O)(C(=O)C(=O)N2CCCCC2)[C@H](C)C[C@@H]1OC)C(=O)C[C@H](O)[C@@H](C)[C@H](OC(C)=O)C(C)CC1CC[C@@H](O)C(OC)C1` (some centres undefined): the Activity is 5 µM in the assay on KB and 0.001 µM in assay [1].
`COC(=O)C(=O)N1CCCC1C(=O)N[C@@H](Cc1ccccc1)C(=O)OC(C)(C)C` (some centres undefined): the Activity (in the assay with KB; in assay [1]) was greater than 50 µM each time.
Regarding `C#C[C@@H](NC(=O)[C@H](Cc1ccccc1)NC(=O)C1CCCCN1CC(=O)c1cccc(OC)c1)C(C)C` (some centres undefined), the Activity is 11 µM in the assay with KB and 5 µM in assay [1].
Regarding `C[C@H](/C=C/c1ccc(C(=O)C(=O)N2CCCC2C(=O)N[C@@H](Cc2ccccc2)C(=O)OC(C)(C)C)s1)CO` (some centres undefined), the Activity was greater than 50 µM in the assay with KB and 100 µM in assay [1].
`C[C@H](/C=C/c1ccc(C(=O)C(=O)N2CCCC2C(=O)N[C@@H](CC2CCCCC2)C(=O)OC(C)(C)C)s1)CO` (some centres undefined): the Activity with KB was 13 µM; in assay [1], greater than 100 µM.
Regarding `C[C@H](/C=C/c1ccc(C(=O)C(=O)N2CCCC2C(=O)OC(C)(C)C)s1)CO` (some centres undefined), the Activity with KB is greater than 50 µM; in assay [1], greater than 100 µM.
The matching figures for `COc1cccc(C(=O)CN2CCCCC2C(=O)N[C@@H](Cc2ccccc2)C(=O)N[C@H](/C=C/COC(C)=O)C(C)C)c1` (some centres undefined): greater than 50 µM and 2 µM.
As to `COc1cccc(C(=O)CN2CCCCC2C(=O)N[C@@H](Cc2ccccc2)C(=O)N[C@H](/C=C/I)C(C)C)c1` (some centres undefined), the Activity in the assay on KB amounted to 30 µM; in assay [1], 2 µM.
For `CCC(C)C[C@H](NC(=O)C1CCCCN1CC(=O)c1cccc(OC)c1)C(=O)OC(C)(C)C` (some centres undefined), in that order: greater than 50 µM and 8 µM.
For the compound `COC(=O)[C@H](Cc1ccccc1)NC(=O)[C@@H](NC(=O)[C@H](Cc1ccccc1)NC(=O)C1CCCCN1CC(=O)c1cccc(OC)c1)C(C)C` (some centres undefined), the Activity in the assay with KB is greater than 50 µM; in assay [1] it was 1 µM.
For `CC(C)[C@H](NC(=O)[C@H](Cc1ccccc1)NC(=O)C1CCCCN1CC(=O)c1ccc2ccccc2c1)C(=O)OC(C)(C)C` (some centres undefined), in that order: 5 µM and 1 µM.
The matching figures for `COc1cccc(C(=O)CN2CCCCC2C(=O)N[C@@H](Cc2ccccc2)C(=O)N[C@H](C(=O)OC(C)(C)C)C(C)C)c1` (some centres undefined): 6 µM and 3 µM.
For `COc1cccc(C(=O)CN2CCCCC2C(=O)N[C@@H](Cc2ccccc2)C(=O)OC(C)(C)C)c1` (some centres undefined), in that order: greater than 50 µM and 3 µM.
For `COc1cccc(C(=O)CN2CCCCC2C(=O)N[C@@H](Cc2ccccc2)C(=O)N[C@@H](CC(C)C)C(=O)OC(C)(C)C)c1` (some centres undefined), the Activity turned out to be 7 µM in the assay on KB and 6 µM in assay [1].
Take `COC(=O)[C@H](Cc1ccccc1)NC(=O)[C@@H](NC(=O)[C@H](Cc1ccccc1)NC(=O)C1CCCCN1CC(=O)c1ccc2ccccc2c1)C(C)C` (some centres undefined): the values for the Activity (with KB; in assay [1]) were greater than 50 µM and 0.3 µM, respectively.
For `C=CCOC/C=C/[C@@H](NC(=O)[C@H](Cc1ccccc1)NC(=O)C1CCCCN1CC(=O)c1cccc(OC)c1)C(C)C` (some centres undefined), in that order: 6 µM and 3 µM.
